Experimental data: ChEMBL document CHEMBL1201862, “PubChem BioAssay data set” (2004)
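Briefly, cells in 96-well plates were exposed to five compound concentrations for 48 h, and endpoints were estimated by linear interpolation. Abbreviation: GI50, concentration required for 50% inhibition of growth.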 The source made the active and inactive calls. Cut-off read from the data, not from the text of the source: active = GI50 up to about 1.1 µM and inactive = higher.

Assays:
Assay in all cases: NCI tumour cell line growth inhibition, 48 h
[1] = system: HT-29
[2] = system: OVCAR-8
[3] = system: EKVX
[4] = system: K562
[5] = system: M14
[6] = system: UO-31
[7] = system: SF-268
[8] = system: UACC-62
[9] = system: HCT-15
[10] = system: OVCAR-4
[11] = system: SK-OV-3
[12] = system: NCI-H226
[13] = system: HOP-62
[14] = system: SW-620
[15] = system: HL-60
[16] = system: KM-20L2
[17] = system: NCI-H460
[18] = system: SK-MEL-5
[19] = system: SNB-78
[20] = system: MOLT-4
[21] = system: U-251
[22] = system: HCT-116
[23] = system: DMS-273
[24] = system: DLD-1
[25] = system: RXF 631
[26] = system: OVCAR-3
[27] = system: UACC-257
[28] = system: HOP-18
[29] = system: Malme-3M
[30] = system: HCC 2998
[31] = system: SF-295
[32] = system: SF-539
[33] = system: CCRF-CEM
[34] = system: TK-10
[35] = system: SK-MEL-28
[36] = system: KM12
[37] = system: COLO 205
[38] = system: SK-MEL-2
[39] = system: OVCAR-5
[40] = system: LOX IMVI
[41] = system: ACHN
[42] = system: SN12C
[43] = system: 786-0
[44] = system: M19-MEL
[45] = system: RXF 393
[46] = system: DMS-114
[47] = system: HOP-92
[48] = system: LXFL 529
[49] = system: SR
[50] = system: SNB-19
[51] = system: NCI-H23
[52] = system: A549
[53] = system: IGROV-1
[54] = system: CAKI-1
[55] = system: RPMI-8226
[56] = system: A498
[57] = system: NCI-H522
[58] = system: SNB-75

## O=C(CO)CC(=O)C(=O)Nc1ccccc1
[1]
  GI50: > 100 µM (inactive)
[2]
  GI50: > 100 µM (inactive)
[3]
  GI50: > 100 µM (inactive)
[4]
  GI50: > 100 µM (inactive)
[5]
  GI50: > 100 µM (inactive)
[6]
  GI50: > 100 µM (inactive)
[7]
  GI50: > 100 µM (inactive)
[8]
  GI50: > 100 µM (inactive)
[9]
  GI50: > 100 µM
[10]
  GI50: > 100 µM (inactive)
[11]
  GI50: > 100 µM (inactive)
[12]
  GI50: > 100 µM (inactive)
[13]
  GI50: > 100 µM (inactive)
[14]
  GI50: > 100 µM (inactive)
[15]
  GI50: > 100 µM (inactive)
[16]
  GI50: > 100 µM (inactive)
[17]
  GI50: > 100 µM (inactive)
[18]
  GI50: > 100 µM (inactive)
[19]
  GI50: > 100 µM (inactive)
[20]
  GI50: > 100 µM (inactive)
[21]
  GI50: > 100 µM (inactive)
[22]
  GI50: > 100 µM (inactive)
[23]
  GI50: > 100 µM (inactive)
[24]
  GI50: > 100 µM (inactive)
[25]
  GI50: 46 µM (inactive)
[26]
  GI50: > 100 µM (inactive)
[27]
  GI50: > 100 µM (inactive)
[28]
  GI50: > 100 µM (inactive)
[29]
  GI50: > 100 µM (inactive)
[30]
  GI50: > 100 µM (inactive)
[31]
  GI50: > 100 µM (inactive)
[32]
  GI50: > 100 µM (inactive)
[33]
  GI50: > 100 µM (inactive)
[34]
  GI50: > 100 µM (inactive)
[35]
  GI50: > 100 µM (inactive)
[36]
  GI50: > 100 µM (inactive)
[37]
  GI50: > 100 µM (inactive)
[38]
  GI50: > 100 µM (inactive)
[39]
  GI50: > 100 µM (inactive)
[40]
  GI50: > 100 µM (inactive)
[41]
  GI50: > 100 µM (inactive)
[42]
  GI50: > 100 µM (inactive)
[43]
  GI50: > 100 µM (inactive)
[44]
  GI50: > 100 µM (inactive)
[45]
  GI50: > 100 µM (inactive)
[46]
  GI50: > 100 µM (inactive)
[47]
  GI50: > 100 µM (inactive)
[48]
  GI50: > 100 µM (inactive)
[49]
  GI50: > 100 µM (inactive)
[50]
  GI50: > 100 µM (inactive)
[51]
  GI50: > 100 µM (inactive)
[52]
  GI50: > 100 µM (inactive)
[53]
  GI50: > 100 µM (inactive)

## COc1ccc(C(=C[N+](=O)[O-])c2ccc(OC)cc2)cc1
[1]
  GI50: 4.52 µM (inactive)
[2]
  GI50: 13 µM (inactive)
[54]
  GI50: 11.6 µM (inactive)
[3]
  GI50: 42.3 µM (inactive)
[4]
  GI50: 3.69 µM (inactive)
[5]
  GI50: 11.9 µM (inactive)
[6]
  GI50: 17.7 µM (inactive)
[7]
  GI50: 20 µM (inactive)
[55]
  GI50: 3.84 µM (inactive)
[8]
  GI50: 9.55 µM (inactive)
[9]
  GI50: 8.05 µM
[10]
  GI50: 34.4 µM (inactive)
[11]
  GI50: 14.3 µM (inactive)
[56]
  GI50: 8.2 µM (inactive)
[12]
  GI50: 24.3 µM (inactive)
[13]
  GI50: 13.3 µM (inactive)
[14]
  GI50: 4.02 µM (inactive)
[15]
  GI50: 5.19 µM (inactive)
[57]
  GI50: 4.45 µM (inactive)
[16]
  GI50: 10.6 µM (inactive)
[17]
  GI50: 10.7 µM (inactive)
[18]
  GI50: 28.6 µM (inactive)
[19]
  GI50: 14.7 µM (inactive)
[20]
  GI50: 3.17 µM (inactive)
[58]
  GI50: 1.87 µM (inactive)
[21]
  GI50: 11.3 µM (inactive)
[22]
  GI50: 8.05 µM (inactive)
[23]
  GI50: 2.74 µM (inactive)
[24]
  GI50: 16.7 µM (inactive)
[25]
  GI50: 14 µM (inactive)
[26]
  GI50: 14.1 µM (inactive)
[27]
  GI50: 8.59 µM (inactive)
[28]
  GI50: > 100 µM (inactive)
[29]
  GI50: 13.3 µM (inactive)
[30]
  GI50: 11.4 µM (inactive)
[31]
  GI50: 5.96 µM (inactive)
[32]
  GI50: 10.9 µM (inactive)
[33]
  GI50: 10.1 µM (inactive)
[34]
  GI50: 25.4 µM (inactive)
[35]
  GI50: 16.2 µM (inactive)
[36]
  GI50: 4.5 µM (inactive)
[37]
  GI50: 9.79 µM (inactive)
[38]
  GI50: 6.14 µM (inactive)
[39]
  GI50: 38.8 µM (inactive)
[40]
  GI50: 9.44 µM (inactive)
[41]
  GI50: 30.1 µM (inactive)
[42]
  GI50: 24 µM (inactive)
[43]
  GI50: 20.8 µM (inactive)
[45]
  GI50: 12.3 µM (inactive)
[46]
  GI50: 4.13 µM (inactive)
[47]
  GI50: 25.4 µM (inactive)
[48]
  GI50: 16.2 µM (inactive)
[49]
  GI50: 4.38 µM (inactive)
[50]
  GI50: 22.2 µM (inactive)
[51]
  GI50: 12.7 µM (inactive)
[52]
  GI50: 13.6 µM (inactive)
[53]
  GI50: 9.42 µM (inactive)
